From patent US10968172B2, “USP30 inhibitors” (Mitobridge, Inc., priority 2017, dated 2021) come the findings set out here.

USP30, sequence (Q70CQ3 whole entry): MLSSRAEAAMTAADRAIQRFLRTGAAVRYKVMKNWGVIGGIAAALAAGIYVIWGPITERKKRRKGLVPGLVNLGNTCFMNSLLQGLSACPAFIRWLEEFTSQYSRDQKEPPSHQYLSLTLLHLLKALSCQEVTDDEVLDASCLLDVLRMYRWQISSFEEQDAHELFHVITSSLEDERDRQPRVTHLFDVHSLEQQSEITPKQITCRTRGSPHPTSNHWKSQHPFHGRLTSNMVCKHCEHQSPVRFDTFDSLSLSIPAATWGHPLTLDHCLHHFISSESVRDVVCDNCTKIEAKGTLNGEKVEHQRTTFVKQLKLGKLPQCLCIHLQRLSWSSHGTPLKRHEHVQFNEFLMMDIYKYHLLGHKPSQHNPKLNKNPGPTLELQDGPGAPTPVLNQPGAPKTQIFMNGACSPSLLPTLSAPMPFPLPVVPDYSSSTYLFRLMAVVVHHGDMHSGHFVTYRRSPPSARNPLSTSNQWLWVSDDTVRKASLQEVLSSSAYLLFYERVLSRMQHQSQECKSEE

The test deals with USP30 (Homo sapiens (Human), UniProt Q70CQ3). Kind of test: In vitro biochemical assay for USP30 enzyme (Ubiquitin-Rhodamine110 cleavage, fluorescence). The settings on record: 20 nM USP30, 15 min pre-incubation, 100 nM Ub rhodamine substrate, 2 hrs at room temperature. On the procedure:
In vitro biochemical assay for USP30 enzyme
The in vitro assay for USP30 evaluates the ability of a test compound to inhibit the activity of the enzyme to cleave ubiquitin from a substrate. Ubiquitin-rhodamine 110 is a quenched, fluorescent substrate for USP30. Cleavage of the amide bond between the C-terminal glycine of ubiquitin and rhodamine results in an increase in rhodamine fluorescence at 535 nm (Exc. 485 nm).
Incubation of the substrate in the presence or absence of USP30 was compared to confirm the deubiquitylating activity of USP30. The USP30 enzyme assay was performed by pre-incubating 20 nM of USP30 with varying concentration of a test compound in the assay buffer [PBS (pH 7.4), 1 mM DTT, 0.01% Tween 20, 0.01% BSA, DMSO final concentration is 1%] for 15 mins at room temperature, following which 100 nM of substrate Ub rhodamine was added and incubated at room temperature for 2 hrs and the plate was read for fluorescence intensity at Ex. 485 nm/535 nm in VICTOR X5 plate reader. The percent inhibition of activity of the enzyme is calculated by comparing counts in the presence and absence of compounds.
Test compounds were screened at various concentrations (10-12 tested concentrations) and dose response curves were generated was generated using GraphPad Prism software Version 7 (San Diego, Calif., USA) with non-linear regression curve fit for sigmoidal dose response (variable slope).
`CC(C)(C)NS(=O)(=O)c1ccc(NC(=O)[C@H](Cc2cccc(Cl)c2)NC(=O)C2CCCCC2)cc1` [Compound 19e, (S)-N-(1-((4-(N-(tert-butyl)sulfamoyl)phenyl)amino)-3-(3-chlorophenyl)-1-oxopropan-2-yl)cyclohexanecarboxamide]: the IC50 is more than 10000 nM. Consider `COc1ccc(C[C@H](NC(=O)c2cocn2)C(=O)Nc2ccc(S(=O)(=O)NC(C)(C)C)cc2)cc1` [Compound 19z, (S)-N-(1-((4-(N-(tert-butyl)sulfamoyl)phenyl)amino)-3-(4-methoxyphenyl)-1-oxopropan-2-yl)oxazole-4-carboxamide], for which the IC50 was more than 10000 nM. Then `CC(C)(C)NS(=O)(=O)c1cccc2c(NC(=O)[C@H](Cc3ccccc3)NC(=O)C3CCC(F)(F)CC3)cccc12` [Compound 4n, (S)—N-(1-((5-(N-(tert-butyl)sulfamoyl)naphthalen-1-yl)amino)-1-oxo-3-phenylpropan-2-yl)-4,4-difluorocyclohexane-1-carboxamide], with 98 nM; and `CC(C)(C)NS(=O)(=O)c1cccc2c(NC(=O)[C@H](Cc3ccccc3)NC(=O)c3ccccc3)cccc12` [Compound 4b, (S)—N-(1-((5-(N-(tert-butyl)sulfamoyl)naphthalen-1-yl)amino)-1-oxo-3-phenylpropan-2-yl)benzamide], with 273 nM. Molecule `COc1ccc(C(=O)N[C@@H](Cc2ccccc2)C(=O)Nc2cccc3c(S(=O)(=O)NC(C)(C)C)cccc23)cc1` [Compound 4v, (S)-N-(1-((5-(N-(tert-butyl)sulfamoyl)naphthalen-1-yl)amino)-1-oxo-3-phenylpropan-2-yl)-4-methoxybenzamide] had an IC50 of 9000 nM. Then `CC(C)(C)NS(=O)(=O)c1ccc(NC(=O)[C@H](Cc2ccccc2)NC(=O)[C@@H]2CCCN2)cc1` [Compound 10i, (S)-N-((S)-1-((4-(N-(tert-butyl)sulfamoyl)phenyl)amino)-1-oxo-3-phenylpropan-2-yl)pyrrolidine-2-carboxamide], with more than 10000 nM; and `CC(C)(C)NS(=O)(=O)c1ccc(NC(=O)[C@H](Cc2cccs2)NC(=O)c2ccccn2)cc1` [Compound 19s, (S)-N-(1-((4-(N-(tert-butyl)sulfamoyl)phenyl)amino)-1-oxo-3-(thiophen-2-yl)propan-2-yl)picolinamide], with 200 nM; and `CC(C)(C)NS(=O)(=O)c1ccc(NC(=O)[C@H](Cc2ccccc2)NC(=O)c2ccccc2)cc1` [Compound 10a, (S)-N-(1-((4-(N-(tert-butyl)sulfamoyl)phenyl)amino)-1-oxo-3-phenylpropan-2-yl)benzamide], with more than 10000 nM.

`COc1ccc(C[C@H](NC(=O)c2cccnc2)C(=O)Nc2ccc(S(=O)(=O)NC(C)(C)C)cc2)cc1` [Compound 19aa, (S)-N-(1-((4-(N-(tert-butyl)sulfamoyl)phenyl)amino)-3-(4-methoxyphenyl)-1-oxopropan-2-yl)nicotinamide] showed an IC50 of 208 nM.

Turning to `CC(C)(C)NS(=O)(=O)c1ccc(NC(=O)[C@H](Cc2ccc(-c3ccccc3)cc2)NC(=O)c2ccc(F)cc2)cc1` [Compound 19l, (S)-N-(3-([1,1′-biphenyl]-4-yl)-1-((4-(N-(tert-butyl)sulfamoyl)phenyl)amino)-1-oxopropan-2-yl)-4-fluorobenzamide], the IC50 was 169 nM.

Consider `CC(C)(C)NS(=O)(=O)c1ccc(NC(=O)[C@H](Cc2cccs2)NC(=O)c2ccc(F)cc2)cc1` [Compound 19g, (S)-N-(1-((4-(N-(tert-butyl)sulfamoyl)phenyl)amino)-1-oxo-3-(thiophen-2-yl)propan-2-yl)-4-fluorobenzamide], for which it took 19 nM to reach half-maximal inhibition (IC50). The result for `CC(C)(C)NS(=O)(=O)c1cccc2c(NC(=O)[C@H](Cc3ccccc3)NC(=O)/C=C/c3ccccc3)cccc12` [Compound 19q, (S)-N-(1-((5-(N-(tert-butyl)sulfamoyl)naphthalen-1-yl)amino)-1-oxo-3-phenylpropan-2-yl)cinnamamide] reads more than 10000 nM; that for `CC(C)(C)NS(=O)(=O)c1cccc2c(NC(=O)[C@H](Cc3ccccc3)NC(=O)c3ccc(C#N)cc3)cccc12` [Compound 4r, (S)-N-(1-((5-(N-(tert-butyl)sulfamoyl)naphthalen-1-yl)amino)-1-oxo-3-phenylpropan-2-yl)-4-cyanobenzamide], 269 nM; that for `CC(C)(C)NS(=O)(=O)c1cccc2c(NC(=O)[C@H](Cc3ccccc3Cl)NC(=O)c3ccccc3)cccc12` [Compound 7d, (S)-N-(1-((5-(N-(tert-butyl)sulfamoyl)naphthalen-1-yl)amino)-3-(2-chlorophenyl)-1-oxopropan-2-yl)benzamide], more than 10000 nM. Then `CC(C)(C)NS(=O)(=O)c1cccc2c(NC(=O)[C@H](Cc3ccccc3)NC(=O)c3ncccn3)cccc12` [Compound 4o, (S)-N-(1-((5-(N-(tert-butyl)sulfamoyl)naphthalen-1-yl)amino)-1-oxo-3-phenylpropan-2-yl)pyrimidine-2-carboxamide], with more than 10000 nM; and `CC(C)(C)NS(=O)(=O)c1cccc2c(NC(=O)[C@H](Cc3ccccc3)NC(=O)C3CCCCC3)cccc12` [Compound 4c, (S)-N-(1-((5-(N-(tert-butyl)sulfamoyl)naphthalen-1-yl)amino)-1-oxo-3-phenylpropan-2-yl)cyclohexanecarboxamide], with 125 nM; and `CC(C)(C)NS(=O)(=O)c1ccc(NC(=O)[C@H](Cc2ccccc2)NC(=O)c2ccc(F)cc2)cc1` [Compound 10e], with 17 nM. `CC(C)(C)NS(=O)(=O)c1ccc(NC(=O)[C@H](CC2CCCCC2)NC(=O)c2cccc(C#N)c2)cc1` [Compound 14i, (S)-N-(1-((4-(N-(tert-butyl)sulfamoyl)phenyl)amino)-3-cyclohexyl-1-oxopropan-2-yl)-3-cyanobenzamide] came in with an IC50 of more than 10000 nM. The molecule `COc1ccc(C[C@H](NC(=O)c2ccccn2)C(=O)Nc2ccc(S(=O)(=O)NC(C)(C)C)cc2)cc1` [Compound 19u, (S)-N-(1-((4-(N-(tert-butyl)sulfamoyl)phenyl)amino)-3-(4-methoxyphenyl)-1-oxopropan-2-yl)picolinamide] displayed an IC50 of 195 nM.

For the molecule `CC(C)(C)NS(=O)(=O)c1ccc(NC(=O)[C@H](CC2CCCCC2)NC(=O)c2ccc(F)c(F)c2)cc1` [Compound 14h, (S)-N-(1-((4-(N-(tert-butyl)sulfamoyl)phenyl)amino)-3-cyclohexyl-1-oxopropan-2-yl)-3,4-difluorobenzamide], the midpoint of inhibition, the IC50, lay at 31 nM. The molecule `CC(C)(C)NS(=O)(=O)c1ccc(NC(=O)[C@H](Cc2ccc(OC(F)(F)F)cc2)NC(=O)c2ccc(F)cc2)cc1` [Compound 19ae, (S)-N-(1-((4-(N-(tert-butyl)sulfamoyl)phenyl)amino)-1-oxo-3-(4-(trifluoromethoxy)phenyl)propan-2-yl)-4-fluorobenzamide] showed an IC50 of 3600 nM.

For `CC(C)(C)NS(=O)(=O)c1cccc2c(NC(=O)[C@H](Cc3ccccc3)NC(=O)c3ccccn3)cccc12` [Compound 4x, (S)-N-(1-((5-(N-(tert-butyl)sulfamoyl)naphthalen-1-yl)amino)-1-oxo-3-phenylpropan-2-yl)picolinamide], the IC50 is 170 nM.

For the molecule `CC(C)(C)NS(=O)(=O)c1cccc2c(NC(=O)[C@H](Cc3ccccc3)NC(=O)CCc3ccccc3)cccc12` [Compound 4f, (S)-N-(5-(N-(tert-butyl)sulfamoyl)naphthalen-1-yl)-3-phenyl-2-(3-phenylpropanamido)propanamide], the IC50 was more than 10000 nM. `CC1CCC(C(=O)N[C@@H](Cc2ccccc2)C(=O)Nc2cccc3c(S(=O)(=O)NC(C)(C)C)cccc23)CC1` (stereo partly drawn) [Compound 4t, (S)-N-(1-((5-(N-(tert-butyl)sulfamoyl)naphthalen-1-yl)amino)-1-oxo-3-phenylpropan-2-yl)-4-methylcyclohexane-1-carboxamide] yielded an IC50 of more than 10000 nM.

Molecule `CC(C)(C)NS(=O)(=O)c1ccc(NC(=O)[C@H](CC2CCCCC2)NC(=O)c2ccc(C(F)(F)F)cc2)cc1` [Compound 14d, (S)-N-(1-((4-(N-(tert-butyl)sulfamoyl)phenyl)amino)-3-cyclohexyl-1-oxopropan-2-yl)-4-(trifluoromethyl)benzamide] yielded an IC50 of more than 10000 nM. `CC(C)(C)NS(=O)(=O)c1cccc2c(NC(=O)[C@H](Cc3cccs3)NC(=O)c3ccccc3)cccc12` [Compound 7k, (S)-N-(1-((5-(N-(tert-butyl)sulfamoyl)naphthalen-1-yl)amino)-1-oxo-3-(thiophen-2-yl)propan-2-yl)benzamide]: the IC50 was 230 nM. In turn, `CC(C)(C)NS(=O)(=O)c1ccc(NC(=O)[C@H](Cc2ccccc2)NC(=O)C2CCCCC2)cc1F` [Compound 19m, (S)-N-(1-((4-(N-(tert-butyl)sulfamoyl)-3-fluorophenyl)amino)-1-oxo-3-phenylpropan-2-yl)cyclohexanecarboxamide] displayed an IC50 of 275 nM. For the molecule `CC(C)(C)NS(=O)(=O)c1ccc(NC(=O)[C@H](Cc2ccccc2)NC(=O)c2cccnn2)cc1` [Compound 10j, (S)-N-(1-((4-(N-(tert-butyl)sulfamoyl)phenyl)amino)-1-oxo-3-phenylpropan-2-yl)pyridazine-3-carboxamide], the IC50 is 148 nM. `CC(C)C[C@H](NC(=O)c1ccccc1)C(=O)Nc1cccc2c(S(=O)(=O)NC(C)(C)C)cccc12` [Compound 7a, (S)-N-(1-((5-(N-(tert-butyl)sulfamoyl)naphthalen-1-yl)amino)-4-methyl-1-oxopentan-2-yl)benzamide] gave an IC50 of 4300 nM.

As a reminder, the IC50 is the concentration at which inhibition is half-maximal. Lower therefore signals inhibition by little substance.
